Reference: patent publication US20140171918A1, “USE OF A NOVEL SU[…]-FREE […] TO DELIVER TE[…] H[…]” (Bioject, Inc., priority 2012, published 2014)

How the values were obtained:
[1] = Pharmacokinetic evaluation using testosterone levels after needle-free (Zetajet) subcutaneous self-injection; type: in vivo, human
Excerpt: The goal of the study is to determine if a needle-free injector can consistently deliver frequent administrations (daily or three times weekly) of testosterone in a safe and effective manner. To answer this specific question, the study was designed to determine the efficacy (defined as testosterone serum levels, wetness, pain, and clinical questionnaire) of the combined product (cross labeled) of needle-free injection of testosterone cypionate hypogonadal men. This includes both objective (testosterone free and total levels) and subjective (pain and clinical questionnaire).
On Jan. 26, 2013, IRBS approved a modification of the CP-445 study. Due to a clear efficacy and patient acceptance at day 30, an extension of the study was requested to follow the fourteen subject's testosterone levels at a less frequent dosing interval and increased dosage. There was no deviation to the protocol as originally designed for day 0-30. Nor was there any deviation to the conduct of the study to day 120. This modification allowed following subjects out to day 120 on a Monday, Wednesday, Friday dosing of 50 mg of testosterone cypionate. Only T levels at day 60 and 120 were assessed.

[2] = tested on: hypogonadal men; assay: Visual/verbal analog pain scale after needle-free injection
Description: Each subject was given thorough instruction on performing self needle-free injections with the Zetaj et. […] Pharmacokinetic evaluation using testosterone levels were obtained at specified intervals. Secondary endpoints, both objective and subjective, included E2 levels, pain score diaries, and AMS scores obtained before and after one month of treatment. A dose confirmation strategy was conducted to achieve likelihood of valid dose.
From day 60-90, all subjects were verified to have cottonseed vehicle in the commercially available formulation via Watson Pharmaceutical.

[3] = tested on: hypogonadal men; assay: Aging Male Score (AMS) questionnaire before and after treatment; type: in vivo, human
Excerpt: AMS scoring was based on a rating of symptom severity ranging from no symptoms with the lowest score of 1 to severe symptoms with a […].

[4] = tested on: hypogonadal men; assay: Adverse events, injection site reactions and wetness after needle-free injection; type: in vivo, human
Excerpt: Of the 14 patients 9 recorded symptoms of redness, 5 symptoms of bruising and one an induration. None of these reactions required medical follow up or dissuaded any patient from discontinuing treatment. See section on Preference for additional data on patient preference and comparison of needle-Free injection methods to needle and syringe. FIG. 5 depicts post injection site reactions as a percentage of the total number of injections for 14 patients over a 30 day period.
Wetness at the injection site is believed to be attributed to moisture on the tip of the syringe prior to the injection per recommended technique. Wetness with visible moisture flow at the site of the injection is thought to result from improper injection technique and a lack of fluid pressure in the nozzle because of the technique. Results for wetness varied across all patients. FIG. 7 depicts cumulative wetness results by category as a percentage of total injections.

C[C@]12CC[C@H]3[C@@H](CCC4=CC(=O)CC[C@@]43C)[C@@H]1CC[C@@H]2OC(=O)CCC1CCCC1 [testosterone cypionate]
course of free and total testosterone levels ([1]; 25 mg daily Zetajet injection, 6 hours to day 30): consistently rose from 6 hours to day 30 | average testosterone level of the men with supraphysiologic levels (above 975.0 ng/dl) ([1]; 25 mg daily Zetajet injection, day 30, four men): 1203 ng/dl | increase of free testosterone levels ([1]; 25 mg daily, from 8.76 ng/dl to 37.5 ng/dl): over four fold increase | average total testosterone levels of QODWO dosing lower than daily injections ([1]; QODWO 50 mg vs daily 25 mg): 35% | increase in testosterone levels ([1]; QODWO dosing at 50 mg): 3 fold | supraphysiologic levels of testosterone ([1]; QODWO dosing at 50 mg): no men had supraphysiologic levels | men with normal testosterone levels ([1]; QODWO dosing at 50 mg, men who completed the 120 day study extension): 11 out of 11 | average free testosterone level ([1]; after 25 mg daily injection, baseline average 8.76 ng/dl): 37.5 ng/dL | men with normal testosterone levels (primary endpoint) ([1]; at two weeks, 25 mg daily): 13/14 | increase in average testosterone levels from baseline ([1]; daily dosing regimen of 25 mg a day): over four fold increase | average testosterone level after correction to the normal range ([1]; three formerly supraphysiologic subjects continued on QODWO regimen (50 mg), extended study): 519 ng/dL | verbal analog pain score, average ([2]; five minutes after injection, scale 0-4, 25 mg daily needle-free injection): 0.54 | visual analog pain score, average ([2]; five minutes after injection, scale 0-10, 25 mg daily needle-free injection in the abdomen): 0.4 | verbal analog pain score ([2]; thirty minutes after injection, scale 0-4, 4 most painful): 0.26 | visual analog pain score ([2]; thirty minutes after injection, scale 0-10, 10 most painful): 0.14 | average AMS score after treatment ([3]; after one month of 25 mg daily, baseline average 50 points, thirteen of fourteen men): 25 points | average reduction in bothersome hypogonadal symptoms (AMS score) ([3]; after one month of treatment vs before): 50% | allergic response or major bruising ([4]; 100 mg/ml and 200 mg/ml commercially available formulations): No allergic response or major bruising | share of injections resulting in minor redness and bruising ([4]; 14 patients over 30 days): a quarter | severe adverse events ([4]; entire study (to day 120)): No severe adverse events | tolerability / safety in words ([4]; needle-free injection in hypogonadal men): well tolerated | patients who recorded an induration ([4]; of the 14 patients, 30 days): one | patients who recorded symptoms of bruising ([4]; of the 14 patients, 30 days): 5 | patients who recorded symptoms of redness ([4]; of the 14 patients, 30 days): 9
